3 compounds from ChEMBL document CHEMBL1151381, “Aporphine Alkaloids From Annona acuminata” (1982) can be followed below.

The test system of the test is KB. Nature of the test: Cytotoxicity against human KB cells. In kind it is functional. As to conditions: read-out: ED50 (the source's name).

Converted amounts (≈) assume the structure as drawn.

For `COc1c(OC)c2c3c(nccc3c1OC)C(=O)c1ccccc1-2` [HOMOMOSCHATOLINE], the EC50 was more than 10 µg/mL.
For `O=C1c2ccccc2-c2c3c(cc4ccnc1c24)OCO3` [LIRIODENINE], the EC50 is 3.1 µg/mL (≈ 11.3 µM).
As for `COc1cc2ccnc3c2c(c1OC)-c1ccccc1C3=O` [LYSICAMINE], the EC50 is more than 10 µg/mL.
